Series [1] can be described thus: Microsomal intrinsic clearance. The settings on record: human, human microsomes.
The next series concerns HL-60. The series can be described thus: cells. The settings on record: Homo sapiens, HL-60, read-out: Absolute EC50, growth inhibition.
Another series has as its target T1, CYP450 2C9 (Homo sapiens, UniProt P11712).
T1 construct: Cyprotex (contract data)
The series can be described thus: CYP450 inhibition. Type of series: in vitro ADME.

Series [2] deals with RAD51 clusters in EUFA423 cells. The series can be described thus: RAD51 molecular clustering by SMLM (d-STORM). The settings on record: 25 μM, 3 h after 3 Gy IR. Type of series: cell-based, human. The method, then:
(§1) […]; [Howlett et al., 2002]). We developed, as isogenic controls, EUFA423 cells complemented by the expression of full-length BRCA2 (EUFA423 + BRCA2) ([Hattori et al., 2011]). […]. […] […].
(§2) Single Molecule Localization Microscopy (SMLM) was achieved by direct Stochastic Optical Reconstruction Microscopy (d-STORM) as described ([Haas et al., 2018]). Briefly, samples were prepared for one colour 2D d-STORM utilizing a buffer containing 100 mM MEA-HCL (Sigma, M6500), 10% glucose (Sigma), 0.5 mg/ml glucose oxidase (Sigma, G2133) and 40 μg/ml catalase (Sigma, C100) in water at pH 7.5. Samples were imaged by direct STORM at room temperature in sealed 8-well ibidi μ-slides utilizing an inverted N-STROM microscope (Nikon Ti, Japan) equipped with an Apochromat 100x/1.49 NA oil immersion objective. Samples were let to equilibrate for at least 30 minutes before imaging to minimize thermal drift. Images were then acquired with highly inclined illumination and focus was maintained by hardware autofocusing (Nikon Perfect Focus System). AlexaFluor647 was first pumped in its dark state using the 640 nm laser line at maximum power (~150 mW) and then imaged continuously with a power density of ~3 kW/cm^2. Data were acquired in ‘streaming mode’ with a field-of-view (FOV) of 256x256 pixels (160 nm pixel size), at 65 frames per second for 25,000 frames with an EMCCD camera (iXon Ultra DU897, Andor). The sparsity of single molecules per frame was controlled using ~0.6 mW of the 405 nm laser. Images of AlexaFluor647 were acquired with a Quad Band Set for TIRF applications (Chroma, TRF89901, ET – 405/488/561/640 nm) and the ET645/75 m emission filter (Chroma).
(§3) Single molecule data was analysed using the Grafeo program available at https://github.com/inatamara/Grafeo-dSTORM-analysis-, as described in ([Haas et al., 2018]). Briefly, all localizations with fewer than 1,000 detected photons or localization precision lower than 20 nm were discarded. Next, the data was filtered using 2D Voronoi diagrams, setting the minimum density (an inverse of Voronoi polygon VP size) to 5∗10^-5 nm^-2. […]

Series [3] has as its system RAD51 clusters in EUFA423 + BRCA2 cells. The series can be described thus: RAD51 molecular clustering by SMLM (d-STORM). It counts as cell-based, human. The note with it: 25 μM. On the procedure: as §1, §2, §3
The subject of a further series is RKO. The series can be described thus: cells. The note with it: Homo sapiens, read-out: Absolute EC50, growth inhibition.
The test system of a further series is PC3. The series can be described thus: cells. The note with it: Homo sapiens, PC-3, read-out: Absolute EC50, growth inhibition.
The subject of a further series is K562. The series can be described thus: cells. The settings on record: Homo sapiens, K562, read-out: Absolute EC50, growth inhibition.
Series [4] can be described thus: Microsomal intrinsic clearance. The settings on record: mouse, mouse microsomes.
A further series deals with SW756. The series can be described thus: cells. The note with it: Homo sapiens, SW756, read-out: Absolute EC50, growth inhibition.
Another series deals with γH2AX foci in A549 cells. The series can be described thus: γH2AX foci, Cellomics ArrayScan high-content microscopy. The settings on record: 50 μM, 24 h after exposure to IR. It counts as cell-based, human. An excerpt:
We tested this prediction by monitoring RAD51 foci formation after the exposure of A549 non-small cell lung carcinoma (NSCLC) cells to ionizing radiation (IR), using a robust cell-based assay based on high-content microscopy with the Cellomics ArrayScan V^TI, to objectively enumerate RAD51 foci ([Jeyasekharan et al., 2013]). IR-induced DNA breakage was monitored in the same experiment by enumerating foci containing γH2AX, a phosphorylated form of histone H2AX that is formed at DNA breaks ([Rogakou et al., 1998]).
For detection of γH2AX foci in A549 cells, 10,000 cells/well (1x10^5 cells/ml) were seeded in 100 μl and left to grow overnight before treatment with compound. Cells were subsequently exposed to compounds and either 3 Gy ionising radiation or mock treated (left on the bench at room temperature). Staining protocol was identical as for RAD51 foci but anti-phospho γH2AX primary mouse monoclonal antibody was used (Millipore, cat#05-636) at 1:2000 dilution. Image analysis was done using Cellomics software.

A further series deals with HFL-1. The series can be described thus: cells. The settings on record: Homo sapiens, HFL1, read-out: Absolute EC50, growth inhibition.
For a further series, the target named is T2, CYP450 2D6 (Homo sapiens, UniProt P10635).
T2 construct: Cyprotex (contract data)
T2 sequence (P10635 whole entry): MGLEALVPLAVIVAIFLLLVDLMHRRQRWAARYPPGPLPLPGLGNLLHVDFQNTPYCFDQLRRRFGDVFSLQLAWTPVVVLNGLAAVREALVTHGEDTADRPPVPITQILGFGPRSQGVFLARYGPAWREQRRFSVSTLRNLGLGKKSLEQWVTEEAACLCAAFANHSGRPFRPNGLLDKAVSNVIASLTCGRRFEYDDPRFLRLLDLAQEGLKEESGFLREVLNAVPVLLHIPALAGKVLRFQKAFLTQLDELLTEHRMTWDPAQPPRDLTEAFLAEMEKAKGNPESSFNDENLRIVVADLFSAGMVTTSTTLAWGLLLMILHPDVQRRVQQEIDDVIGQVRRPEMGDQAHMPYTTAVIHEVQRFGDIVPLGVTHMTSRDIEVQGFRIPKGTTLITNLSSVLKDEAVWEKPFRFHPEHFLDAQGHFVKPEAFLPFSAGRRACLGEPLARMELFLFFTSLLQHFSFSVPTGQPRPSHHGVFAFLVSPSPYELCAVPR
The series can be described thus: CYP450 inhibition. Type of series: in vitro ADME.

≈ marks a conversion by molar mass, not a printed value. Some results are limits rather than exact numbers.

T1 sequence (P11712 whole entry): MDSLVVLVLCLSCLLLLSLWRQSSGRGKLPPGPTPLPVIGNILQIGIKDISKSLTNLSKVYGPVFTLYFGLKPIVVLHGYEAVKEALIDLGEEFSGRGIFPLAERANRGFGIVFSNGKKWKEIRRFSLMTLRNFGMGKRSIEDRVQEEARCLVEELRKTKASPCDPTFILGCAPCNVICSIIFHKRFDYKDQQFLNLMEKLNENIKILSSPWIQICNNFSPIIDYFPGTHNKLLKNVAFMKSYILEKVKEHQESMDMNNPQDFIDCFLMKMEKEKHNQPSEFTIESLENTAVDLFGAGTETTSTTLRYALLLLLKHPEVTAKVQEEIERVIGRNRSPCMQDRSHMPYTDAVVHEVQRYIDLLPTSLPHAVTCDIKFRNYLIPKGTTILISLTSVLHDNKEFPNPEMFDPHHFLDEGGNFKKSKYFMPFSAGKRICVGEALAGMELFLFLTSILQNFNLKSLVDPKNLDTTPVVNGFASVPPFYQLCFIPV

As for `COc1ccc([C@H](C)NC(=O)[C@@H]2C[C@@H](O)CN2C(=O)CNC(=O)c2ccc3cc(F)ccc3n2)c(Cl)c1` [CAM833, N-(2-((2S,4R)-2-(((S)-1-(2-chloro-4-methoxyphenyl)ethyl)carbamoyl)-4-hydroxypyrrolidin-1-yl)-2-oxoethyl)-6-fluoroquinoline-2-carboxamide], the half-life stood at 76.8 min in series [1] and 43.1 min in series [4]. Further, the intrinsic clearance (microsomal CLint) amounted to 18 ± 4.52 µL/min/mg in series [1] and 32.2 ± 2.99 µL/min/mg in series [4]. The concentration giving a half-maximal response (EC50) came to 87.7 µM in the series with HL-60; 63.5 µM in the series with RKO; 91.2 µM in the series on PC3; 137 µM with K562; 124 µM with SW756; 98.8 µM in the series on HFL-1. Moreover, the IC50 against CYP450 2C9 and against CYP450 2D6 was greater than 25 µM throughout. For the same molecule, the “RAD51 accumulation in damage-induced foci (in words)” value in series [2] and in series [3] (3 h after 3 Gy IR) was “significantly reduces” each time. For the same molecule, the “formation of elongated RAD51 filaments (in words)” value in [3] (3 Gy IR) is given as “prevents the formation of elongated filaments”. This molecule also returned a solubility in “Aqueous solubility” (pH 7.4 buffer, pH 7.4, aqueous buffer, thermodynamic from solid) of 7.75 µg/mL (≈ 14.7 µM). The “solubility (in words)” value in the series “Aqueous solubility” (summary of Table S1) is “moderate”. In addition, in the series with γH2AX foci in A549 cells, the “increase of γH2AX foci formation compared with control-treated cells” value is given as “approximately 4 fold”.

The term half-life denotes how long it takes for the measured level to halve. Higher therefore signals slow loss. Usually microsomal CLint stands for a measure of how fast metabolising enzymes remove a compound, apart from limits set by blood flow. The EC50 is the concentration needed to bring the measured effect to its halfway point. For orientation: IC50 means the concentration needed to halve the response being measured. The low end stands for inhibition by little substance, the high end for a need for much substance. The solubility is how much of the substance goes into solution per volume. Read a high solubility as a readily soluble substance.

The values above are taken from article PMC8219027, “A small-molecule inhibitor of the BRCA2-RAD51 interaction modulates RAD51 assembly and potentiates DNA damage-induced cell death” (Cell Chemical Biology, 2021).
